Measured values as given in US8889688B2, “Piperazines as antimalarial agents” (Actelion Pharmaceuticals Ltd., priority 2011, dated 2014).
Like-named read-outs stand apart in the source and are kept apart here.

Columns and labels:
[1] = test system: erythrocytic stages of P. falciparum NF54; experiment: Plasmodium falciparum in vitro assay, [3H] hypoxanthine incorporation; assay type: cell-based; conditions: P. falciparum NF54 in human red blood cells, 48 h + 24 h incubation
How it was run: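 Cultures in human red blood cells (2.5% hematocrit, 0.3% parasitemia) were exposed to serially diluted compounds for 48 h at 37° C. under 4% CO2, 3% O2, 93% N2. [3H] hypoxanthine (0.5 μCi) was added for a further 24 h, incorporation counted by scintillation, and IC50 derived from sigmoidal inhibition curves.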

[2] = test system: P. berghei strain GFP-ANKA; experiment: In vivo antimalarial efficacy study in infected NMRI mice; conditions: female NMRI mice infected with P. berghei GFP-ANKA, single oral dose of 100 mg/kg 24 h after infection, parasitemia 48 h after drug treatment (day 3); for inhibition in vivo at 100 mg/kg: Plasmodium berghei, read-out: Activity (inhibition of parasitemia) expressed as a percent relative to the control group
How it was run: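 Female NMRI mice, in groups of three, were infected i.v. on day 0 with 2×10^7 P. berghei GFP-ANKA parasitized erythrocytes. At 24 h they received one oral 100 mg/kg dose in Tween 80/ethanol (7%/3%). Parasitemia was counted by FACS on day 3, and activity was given as percent reduction versus controls.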

[3] = Plasmodium falciparum, Erythrocyte, 72 h, screening medium with Albumax (5 g/L), read-out: IC50 on NF54 (with Albumax)
[4] = Plasmodium falciparum, Erythrocyte, 72 h, screening medium with human serum (50% final concentration), read-out: IC50 on NF54 (with 50% Serum)

Row | Molecule | IC50 [1, 3] [nM] | IC50 [1, 4] [nM] | inhibition in vivo at 100 mg/kg [2] [%] | IC50 ([1]; screening medium with Albumax (5 g/L), read-out: IC50 on NF54 (with Albumax)) [nM] | IC50 ([1]; screening medium with human serum (50% final concentration), read-out: IC50 on NF54 (with 50% Serum)) [nM] | Activity (inhibition of parasitemia) expressed as a percent relative to the control group [2] [%]
1 | CC(=O)N1CCN(c2ccc(CN(C(=O)C=Cc3ccc(OC(F)F)cc3)[C@@H](Cc3ccccc3)C(=O)N3CCN(Cc4ccc(N(C)CCO)cc4)CC3)cc2)CC1 [Example 60, (S)-N-[4-(4-Acetyl-piperazin-1-yl)-benzyl]-N-[1-benzyl-2-(4-{4-[(2-hydroxy-ethyl)-methyl-amino]-benzyl}-piperazin-1-yl)-2-oxo-ethyl]-3-(4-difluoromethoxy-phenyl)-acrylamide] | 3 | 8.1 | 78.3 | – | – | –
2 | CC(=O)N1CCN(c2ccc(CN(C(=O)C=Cc3ccc(C(C)(C)C)cc3)[C@@H](Cc3ccccc3)C(=O)N3CCN(Cc4ccc(N(C)CCO)cc4)CC3)cc2)CC1 [Example 62, (S)-N-[4-(4-Acetyl-piperazin-1-yl)-benzyl]-N-[1-benzyl-2-(4-{4-[(2-hydroxy-ethyl)-methyl-amino]-benzyl}-piperazin-1-yl)-2-oxo-ethyl]-3-(4-tert-butyl-phenyl)-acrylamide] | 0.7 | 3.2 | 99.4 | – | – | –
3 | (S)-N-[4-(4-Acetyl-piperazin-1-yl)-benzyl]-N-[1-benzyl-2-(4-{4-[(2-hydroxy-ethyl)-methyl-amino]-benzyl}-piperazin-1-yl)-2-oxo-ethyl]-3-(4-isopropyl-phenyl)-acrylamide [Example 61] | – | – | – | 1.2 | 6.7 | 98.8
